{
  "source": "patent US10842801B2",
  "about": "“Optimizing mifepristone absorption” (Corcept Therapeutics, Inc., priority 2011, dated 2020)",
  "key": {"[1]": {"assay": "Food effect studies: pharmacokinetics of mifepristone under fasting and fed conditions", "type": "in vivo, human", "details": "for AUC(0-inf) / Cmax / AUC(0-t): human, plasma, oral; for AUC(0-inf): read-out: AUCinf Geo Mean; for Cmax: read-out: Cmax Geo Mean; for AUC(0-t): read-out: AUC0-24 Geo Mean", "method": "Blood is collected from a patient in a vacutainer containing sodium heparin. The blood is centrifuged and the resulting plasma frozen at an appropriate temperature until assay. In some embodiments, the temperature is about -70° C. In other embodiments, other blood components can be collected and stored. Prior to analysis, the plasma is thawed and a fraction of the plasma is mixed with an internal standard in a solvent such as acetonitrile, to obtain a fixed concentration of the standard. In some embodiments, the internal standard can be mifepristone-d4. […] Base is then added to the sample solution. The base can be any amine or ammonium base, such as ammonium hydroxide. […] Solvent is then added to the solution and the mifepristone (along with the internal standard) are extracted from the plasma. […] Following separation and concentration of the organic layer, the sample is reconstituted in a solvent mixture comprising water, acetonitrile and formic acid. The ratio of the solvent components can vary. In some embodiments, the solvent mixture is water:acetonitrile:formic acid (75:25:0.1, v/v/v). […] The sample can then be analyzed by reverse-phase high pressure liquid chromatography (HPLC). In some embodiments, the reverse-phase HPLC is performed using a water:acetonitrile:formic acid (60:40:0.1) mobile phase (isocratic) at a flow rate of 0.3 mL/min. […] The reverse-phase HPLC column can be a phenyl column maintained at 50° C. […] Following elution, the mobile phase can be nebulized using heated nitrogen in a Z-spray source/interface and the ionized compounds detected using a tandem quadrupole mass spectrometer. Mifepristone (molecular weight of 430 g/mol) can be detected at m/z 372.30. The internal standard mifepristone-d4 can be detected at m/z 376.30. The ratio of the mifepristone peak height to the peak height for the internal standard can then be calculated. The plasma concentration of mifepristone is then calculated by comparing the experimental ratio to a standard curve of mifepristone:mifepristone-d4 peak height ratio v. mifepristone concentration. […] In all studies, healthy adults were randomized to a sequence of administration of mifepristone drug product under fasting and fed conditions. […] The test group was comprised of 10 healthy adult subjects who were randomized to receive mifepristone at 600 mg/day for up to 14 days in Cohort 3 of Study CORT-108297-102. For this comparison the PK data after 7 days of dosing were used. […] The meal was given every day at approximately 30 min prior to receiving mifepristone, which was dosed as two 300 mg tablets once daily."}, "[2]": {"assay": "Plasma drug concentration in different patients given the same dose of mifepristone", "type": "in vivo, human"}, "[3]": {"details": "600 mg single dose, Fed (50% fat) vs Fast, Study 12"}, "[4]": {"details": "600 mg/day for 7 days following a breakfast of 34% fat, Day 7"}, "[5]": {"details": "600 mg/day x 7 days, Fed (34% fat) vs Fast, C3"}, "[6]": {"details": "1200 mg single dose, Fed (50% fat) vs Fast, Study 20"}, "[7]": {"details": "1200 mg/day x 7 days, Fed (34% fat) vs Fast, Study 27"}, "[8]": {"details": "1200 mg/day, high fat (50%) meal on day 8 after 7 days with typical fat meals"}, "[9]": {"details": "600 mg, 600 mg single dose, Fast, healthy adults, Study 12"}, "[10]": {"details": "600 mg, 600 mg single dose, Fed 50% fat, healthy adults, Study 12"}, "[11]": {"details": "600 mg/day, 600 mg/day x 7 days, Fast, healthy adults, historical Studies C-1073-05 and C-1073-300 Part II (reference for C3)"}, "[12]": {"details": "600 mg/day, 600 mg/day x 7 days, Fed 34% fat, healthy adults, Cohort 3 of CORT-108297-102"}, "[13]": {"details": "1200 mg, 1200 mg single dose, Fast, healthy adults, Study 20"}, "[14]": {"details": "1200 mg, 1200 mg single dose, Fed 50% fat, healthy adults, Study 20"}, "[15]": {"details": "1200 mg/day, 1200 mg/day x 7 days, Fed 34% fat, healthy adults, Study 27"}},
  "note": "Like-named read-outs stand apart in the source and are kept apart here.",
  "data": [
    {"smiles": "CC#C[C@]1(O)CC[C@H]2[C@@H]3CCC4=CC(=O)CCC4=C3[C@@H](c3ccc(N(C)C)cc3)C[C@@]21C", "note": "[Mifepristone, 17-beta-hydroxy-11-beta-(4-dimethyl-aminophenyl)-17-alpha-(1-propynyl)-estra-4,9-dien-3-one]", "values": [
      {"measurement": "AUCinf Ratio of Geometric Means", "setting": "[1]; [3]", "value": 1.29},
      {"measurement": "Cmax Ratio of Geometric Means", "setting": "[1]; [3]", "value": 1.19},
      {"measurement": "increase in AUC0-24 as compared to the same dose in the fasted state", "setting": "[1]; [4]", "value": 44, "unit": "%"},
      {"measurement": "increase in Cmax as compared to the same dose in the fasted state", "setting": "[1]; [4]", "value": 34, "unit": "%"},
      {"measurement": "AUC0-24 Ratio of Geometric Means", "setting": "[1]; [5]", "value": 1.44},
      {"measurement": "Cmax Ratio of Geometric Means", "setting": "[1]; [5]", "value": 1.34},
      {"measurement": "AUCinf Ratio of Geometric Means", "setting": "[1]; [6]", "value": 1.42},
      {"measurement": "Cmax Ratio of Geometric Means", "setting": "[1]; [6]", "value": 1.30},
      {"measurement": "mean increase in mifepristone exposure relative to the fasted state", "setting": "[1]; 1200 mg/day for 7 days with typical fat meals vs 7 days fasted", "value": 65, "unit": "%"},
      {"measurement": "Cmax Geo Mean", "setting": "[1]; 1200 mg/day x 7 days, Fast, healthy adults, Study 27", "value": 3223, "unit": "ng/mL"},
      {"measurement": "AUC0-24 Ratio of Geometric Means", "setting": "[1]; [7]", "value": 1.65},
      {"measurement": "Cmax Ratio of Geometric Means", "setting": "[1]; [7]", "value": 1.56},
      {"measurement": "effect on Cmax of switching to a high fat meal", "setting": "[1]; [8]", "value": "little or no effect"},
      {"measurement": "effect on exposure of switching to a high fat meal", "setting": "[1]; [8]", "value": "little or no effect"},
      {"measurement": "AUC(0-inf)", "setting": "[1]; [9]", "value": 104000, "unit": "ng·h/mL"},
      {"measurement": "Cmax", "setting": "[1]; [9]", "value": 2310, "unit": "ng/mL"},
      {"measurement": "AUC(0-inf)", "setting": "[1]; [10]", "value": 134000, "unit": "ng·h/mL"},
      {"measurement": "Cmax", "setting": "[1]; [10]", "value": 2740, "unit": "ng/mL"},
      {"measurement": "AUC(0-t)", "setting": "[1]; [11]", "value": 43600, "unit": "ng·h/mL"},
      {"measurement": "Cmax", "setting": "[1]; [11]", "value": 3040, "unit": "ng/mL"},
      {"measurement": "AUC(0-t)", "setting": "[1]; [12]", "value": 62600, "unit": "ng·h/mL"},
      {"measurement": "Cmax", "setting": "[1]; [12]", "value": 4070, "unit": "ng/mL"},
      {"measurement": "AUC(0-inf)", "setting": "[1]; [13]", "value": 134000, "unit": "ng·h/mL"},
      {"measurement": "Cmax", "setting": "[1]; [13]", "value": 2830, "unit": "ng/mL"},
      {"measurement": "AUC(0-inf)", "setting": "[1]; [14]", "value": 191000, "unit": "ng·h/mL"},
      {"measurement": "Cmax", "setting": "[1]; [14]", "value": 3660, "unit": "ng/mL"},
      {"measurement": "AUC(0-t)", "setting": "[1]; 1200 mg/day, 1200 mg/day x 7 days, Fast, healthy adults, Study 27", "value": 44200, "unit": "ng·h/mL"},
      {"measurement": "AUC(0-t)", "setting": "[1]; [15]", "value": 72800, "unit": "ng·h/mL"},
      {"measurement": "Cmax", "setting": "[1]; [15]", "value": 5040, "unit": "ng/mL"},
      {"measurement": "dose proportionality of exposure and Cmax", "setting": "[1]; multiple dosing, doses above 600 mg, fasted", "value": "strong lack of dose proportionality"},
      {"measurement": "difference in plasma drug concentration from one patient to another", "setting": "[2]", "value": "≤ 800", "unit": "%"}
    ]}
  ]
}
